# Measured values reported in PubChem BioAssay AID1347 (Sanford-Burnham Center for Chemical Genomics, 2008).
# Calls of active or inactive are those of the source.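 How the source made its calls: active means survival repeatably raised 25 points above the stressor-only control level of 35%, about 60% survival; inactive means the rest.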
# System: differentiated CSM14.1, thapsigargin death rescue, ATPlite, 24 h
# Assay: ER stress death protection in CSM14.1 neurons – cell-based, differentiated CSM14.1, ATP luminescence, SAR follow-up (AID 1347)
# Conditions: at 25 µM; hits give high values
row,SMILES,survival
1,CC1(C)CC(=O)C2=C(C1)Nc1ccccc1NC2c1ccc(-c2ccccc2)cc1 (stereo unspecified),47%
2,CCOc1cc(C2Nc3ccccc3NC3=C2C(=O)CC(c2ccc(OC)cc2)C3)cc(Cl)c1O (stereo unspecified),20% (inactive)
3,COc1ccc(C2CC(=O)C3=C(C2)Nc2ccccc2NC3c2cc(C)ccc2C)cc1 (stereo unspecified),69%
4,O=C1CC(c2ccccc2)CC2=C1C(c1c(F)cccc1Cl)Nc1ccccc1N2 (stereo unspecified),10% (inactive)
5,CCOc1cccc(C2Nc3ccccc3NC3=C2C(=O)CC(c2ccc(OC)cc2)C3)c1 (stereo unspecified),64%
6,COc1ccc(C2CC(=O)C3=C(C2)Nc2ccccc2NC3c2cccc(C(F)(F)F)c2)cc1OC (stereo unspecified),65%
7,CSc1ccc(C2Nc3ccccc3NC3=C2C(=O)CC(c2ccccc2)C3)cc1 (stereo unspecified),65%
8,COc1ccc(C2CC(=O)C3=C(C2)Nc2ccccc2NC3c2cccc(Oc3ccccc3)c2)cc1OC (stereo unspecified),66%
9,COc1ccc(C2CC(=O)C3=C(C2)Nc2ccccc2NC3c2ccccc2C(F)(F)F)cc1OC (stereo unspecified),68%
10,CCCOc1ccc(C2Nc3ccccc3NC3=C2C(=O)CC(c2ccc(OC)c(OC)c2)C3)cc1 (stereo unspecified),68%
11,COc1ccc(C2CC(=O)C3=C(C2)Nc2ccccc2NC3c2cccc(Br)c2)cc1OC (stereo unspecified),63%
